Assay results as given in patent US4977267A, “Intermediates for pyridyloxy compounds having utility as anti-peptic ulcer agents” (Fujirebio Kabushiki Kaisha, priority 1987, dated 1990).

These molecules were tested on gastric mucosa (lesion by necrotizing agent 0.4N HCl+50% ethanol) (assay: Test on the Action of Gastric Mucosal Protection). Settings: 10 mg/kg, p.o., 30 minutes before necrotizing agent (0.4N HCl+50% ethanol, 5 ml/kg); stomach isolated after one hour; rats fasted 24 hours.
Format: in vivo, Male Donryu rats
Description: Test on the Action of Gastric Mucosal Protection
Male Donryu rats (150 to 250 g) which had been caused to fast for 24 hours were used. In the test, a necrotizing agent (0.4N HCl+50% ethanol) was orally administered in a dose of 5 ml/kg 30 minutes after administering each of the test compounds (10 mg/kg, p.o.). One hour after administration of the necrotizing agent, the stomach was isolated and fixed by formalin. The area of a lesion was measured, and by comparison with a control group, the percent inhibition was determined.

| Structure (SMILES) | Inhibition (%) of lesion area [%] |
| --- | --- |
| O=C(CSCc1ccco1)NC/C=C\COc1cc(CN2CCCCC2)ccn1 [Example 1, N-{4-[4-(piperidinomethyl)pyridyl-2oxy]-cis-2-butenyl)-2-(furfurylthio)acetamide] | 66 |
| O=C(C[S+]([O-])Cc1ccco1)NC/C=C\COc1cc(CN2CCCCC2)ccn1 (stereo not drawn) [Example 2, N-{4-[4-(piperidinomethyl)pyridyl-2-oxy]-cis-2-butenyl}-2-(furfurylsulfinyl)acetamide] | 32 |
| O=C(CS(=O)(=O)Cc1ccoc1)NC/C=C\COc1cc(CN2CCCCC2)ccn1 [Example 3, N-{4-[4-(piperidinomethyl)pyridyl-2-oxy]-cis-2-butenyl}-2-(3-furylmethylsulfonyl)acetamide] | 62 |
| O=C(C[S+]([O-])Cc1ccco1)NC/C=C\COc1cc(CN2CCOCC2)ccn1 (stereo not drawn) [Example 12, N-{4-[4-(morpholinomethyl)pyridyl-2-oxy]-cis-2-butenyl}-2-(furfurylsulfinyl)acetamide] | 38 |
| O=C(C[S+]([O-])Cc1ccco1)NCCCCOc1cc(CN2CCCCC2)ccn1 (centres unmarked) [Example 21, N-{4-[4-(piperidinomethyl)-pyridyl-2-oxy]-butyl}-2-(furfurylsulfinyl)acetamide] | 32 |

The molecules below were run against T1, histamine H2 receptor (Cavia porcellus, UniProt P47747) (assay: Test on histamine H2 receptor antagonizing activity (isolated right atrium)). Settings: guinea pig right atrium, heart rate; histamine dose-response; test compound 1×10^-6, 1×10^-7 M, 10 minutes; Van Rossum method; read-out: pA2 (converted).
T1 construct: the right atrium was dissected from the hearts; from tissue; host or cells: isolated right atrium of male Hartley-strain guinea pigs
T1 sequence (P47747 whole entry): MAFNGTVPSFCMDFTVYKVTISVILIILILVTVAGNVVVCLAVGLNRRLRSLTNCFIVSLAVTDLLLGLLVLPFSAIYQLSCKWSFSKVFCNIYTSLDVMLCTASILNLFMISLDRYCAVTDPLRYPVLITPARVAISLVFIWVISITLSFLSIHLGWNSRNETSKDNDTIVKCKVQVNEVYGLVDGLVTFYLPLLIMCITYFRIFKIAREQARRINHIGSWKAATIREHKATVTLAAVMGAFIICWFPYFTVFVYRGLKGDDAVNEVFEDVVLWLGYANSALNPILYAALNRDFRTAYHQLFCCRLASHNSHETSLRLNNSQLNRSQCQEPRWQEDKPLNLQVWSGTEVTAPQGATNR
Parameters: species or system Hartley-strain guinea pigs
Description: Test on histamine H2 receptor antagonizing activity
Hartley-strain guinea pigs (male 300 to 350 g) were stunned with a blow to the head. The heart was removed, and the right atrium was dissected from the hearts in the Krebs' solution bubbled with a […] was suspended in an Organ bath filled with the Krebs' solution kept at 32° C. The gaseous mixture was passed through the Organ bath, and a diastolic tension was adjusted to 1 g. The contraction of the atrium was recorded by a force displacement transducer, and the heart rate was measured by interlocking a heart rate meter to the transducer.
Histamine (used in the form of dihydrochloride; the same hereinafter) was added to the Organ bath cumulatively in a concentration of 1×10^-8 M to 3×10^-5 M. Thus, the dose-response curve of histamine was obtained. The Organ bath was washed several times, and each of the test compounds (1×10^-6, 1×10^-7 M) was added to the Organ bath, and a dose-response curve of histamine in the presence of the test compound was obtained 10 minutes later.
The pA2 value of each of the test compound was determined from the first histamine dose-response curve and the histamine dose-response curve obtained in the presence of the test compounds by the method of J. M. Van Rossum (Arch. Int. Pharmacodyn. Ther., 143-299, 1963).

| Structure (SMILES) | Kb [µM] |
| --- | --- |
| O=C(C[S+]([O-])Cc1ccco1)NC/C=C\COc1cc(CN2CCCC2)ccn1 (stereo not drawn) [Example 10, N-{4-[4-(pyrrolidinomethyl)pyridyl-2-oxy]-cis-2-butenyl}-2-(furfurylsulfinyl)acetamide] | 0.126 |
| O=C(CS(=O)(=O)Cc1ccoc1)NC/C=C\COc1cc(CN2CCCC2)ccn1 [Example 11, N-{4-[4-(pyrrolidinomethyl)pyridyl-2-oxy]-cis-2-butenyl}-2-(3-furylmethylsulfonyl)acetamide] | 0.1 |
| O=C(C[S+]([O-])Cc1ccco1)NC/C=C\COc1cc(CN2CCOCC2)ccn1 (stereo not drawn) [Example 12, N-{4-[4-(morpholinomethyl)pyridyl-2-oxy]-cis-2-butenyl}-2-(furfurylsulfinyl)acetamide] | 0.251 |
